pIC50: −log10 of the molar value.
biological target: ROCK2 (Homo sapiens (Human), UniProt O75116); assay: ROCK assay (LABCHIP 3000 peptide phosphorylation assay); type: biochemical; details: 5 μM ATP, 1.5 μM peptide substrate, dose-response
Procedure, shortened: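 Rho kinase variants in 20 mM HEPES pH 7.5, 20 mM MgCl2, 0.015% Brij-35, 4 mM DTT, 5 μM ATP, 1.5 μM FITC-AHA-AKRRRLSSLRA-OH peptide; DMSO <2%. EDTA-stopped; phosphorylated/non-phosphorylated peptide separated by microfluidic LabChip readout. Dose-response inhibition curve-fitted to give IC50.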

Chain of ROCK2 (O75116 whole entry, species assumed): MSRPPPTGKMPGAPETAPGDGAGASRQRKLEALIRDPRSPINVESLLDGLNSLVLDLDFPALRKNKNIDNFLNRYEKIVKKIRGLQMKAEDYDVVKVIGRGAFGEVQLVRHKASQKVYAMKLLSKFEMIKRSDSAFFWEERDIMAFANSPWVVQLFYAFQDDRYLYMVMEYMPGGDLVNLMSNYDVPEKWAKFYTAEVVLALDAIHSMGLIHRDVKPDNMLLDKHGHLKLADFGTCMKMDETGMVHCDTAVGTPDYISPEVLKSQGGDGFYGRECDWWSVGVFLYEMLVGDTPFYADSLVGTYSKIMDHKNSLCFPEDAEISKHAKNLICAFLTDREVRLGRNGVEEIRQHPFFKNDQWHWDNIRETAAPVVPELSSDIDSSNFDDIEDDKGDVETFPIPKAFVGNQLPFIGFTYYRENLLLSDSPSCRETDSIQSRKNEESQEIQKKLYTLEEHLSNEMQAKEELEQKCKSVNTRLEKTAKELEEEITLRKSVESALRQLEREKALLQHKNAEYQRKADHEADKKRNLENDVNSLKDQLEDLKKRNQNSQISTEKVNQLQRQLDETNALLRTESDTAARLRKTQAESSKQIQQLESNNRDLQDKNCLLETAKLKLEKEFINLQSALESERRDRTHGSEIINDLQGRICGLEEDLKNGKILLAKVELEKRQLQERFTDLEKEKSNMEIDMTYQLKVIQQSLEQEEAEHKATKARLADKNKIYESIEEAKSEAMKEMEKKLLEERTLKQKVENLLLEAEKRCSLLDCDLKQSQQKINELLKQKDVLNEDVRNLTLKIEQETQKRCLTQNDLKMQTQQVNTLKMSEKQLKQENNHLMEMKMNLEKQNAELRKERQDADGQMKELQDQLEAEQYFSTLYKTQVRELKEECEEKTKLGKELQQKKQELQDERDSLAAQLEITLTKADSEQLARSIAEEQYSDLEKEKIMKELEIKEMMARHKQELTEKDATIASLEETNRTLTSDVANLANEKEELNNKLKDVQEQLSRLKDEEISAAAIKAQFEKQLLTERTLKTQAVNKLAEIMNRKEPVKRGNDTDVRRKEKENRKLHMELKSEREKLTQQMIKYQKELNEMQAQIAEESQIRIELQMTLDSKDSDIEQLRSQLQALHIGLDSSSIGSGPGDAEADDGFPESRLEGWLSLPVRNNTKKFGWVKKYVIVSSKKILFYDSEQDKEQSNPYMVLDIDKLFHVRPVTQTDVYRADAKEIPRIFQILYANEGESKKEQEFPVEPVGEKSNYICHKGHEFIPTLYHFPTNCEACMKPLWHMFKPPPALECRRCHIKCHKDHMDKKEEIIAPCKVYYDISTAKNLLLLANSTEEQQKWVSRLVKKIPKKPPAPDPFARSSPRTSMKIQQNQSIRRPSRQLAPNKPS

pIC50	SMILES
7.80	COc1cccc2c1nc(NC(=O)Cc1ccc(Oc3ncccc3C(N)=O)c(F)c1)n2CC1CC1 [Example 163, 2-(4-(2-((1-(cyclo-propylmethyl)-4-methoxy-1H-benzo[d]imidazol-2-yl)amino)-2-oxoethyl)-2-fluorophenoxy)-nicotinamide]
7.28	Cc1sc(NC(=O)Cc2ccc(Oc3ncccc3C(N)=O)c(F)c2)nc1-c1ccc(=O)n(C(F)F)c1 [Example 021, 2-(4-(2-((4-(1-(difluoromethyl)-6-oxo-1,6-dihydropyridin-3-yl)-5-methylthiazol-2-yl)amino)-2-oxoethyl)-2-fluorophenoxy)nicotinamide]
7.46	NC(=O)c1cccnc1Oc1ccc(CC(=O)Nc2cn3cc(Br)ccc3n2)cc1Cl [Example 009, 2-(4-(2-((6-bromoimidazo[1,2-a]pyridin-2-yl)amino)-2-oxoethyl)-2-chlorophenoxy)nicotinamide]
7.35	NC(=O)c1cccnc1Oc1ccc(CC(=O)Nc2nc3ccc(OC(F)F)nc3s2)cc1Cl [Example 121, 2-(2-chloro-4-(2-((5-(difluoro-methoxy)thiazolo-[5,4-b]pyridin-2-yl)amino)-2-oxoethyl)phenoxy)-nicotinamide]
7.80	NC(=O)c1cccnc1Oc1ccc(CC(=O)Nc2nc3ccc(C(F)(F)F)cc3n2CC2CC2)cc1Cl [Example 176, 2-(2-chloro-4-(2-((1-(cyclo-propylmethyl)-6-(trifluoro-methyl)-1H-benzo[d]-imidazol-2-yl)-amino)-2-oxo-ethyl)phenoxy)-nicotinamide]
6.22	Cc1ccc2[nH]c(NC(=O)Cc3ccc(Oc4ncccc4C(N)=O)cc3)nc2c1 [Example 068, 2-(4-(2-((5-methyl-1H-benzo[d]imidazol-2-yl)amino)-2-oxoethyl)phenoxy) nicotinamide]
7.52	Cc1cc(-c2ccc3sc(NC(=O)Cc4ccc(Oc5ncccc5C(N)=O)c(F)c4)nc3c2)n(C)n1 [Example 028, 2-(4-(2-((5-(1,3-dimethyl-1H-pyrazol-5-yl)benzo[d]thiazol-2-yl)amino)-2-oxoethyl)-2-fluorophenoxy)nicotin-amide]
5.95	Cc1nnc(NC(=O)Cc2ccc(Oc3ncccc3C(N)=O)cc2)s1 [Example 055, 2-(4-(2-((5-methyl-1,3,4-thiadiazol-2-yl)amino)-2-oxoethyl)phenoxy) nicotinamide]
8.00	COc1ccc2c(c1)CCc1sc(NC(=O)Cc3ccc(Oc4ncccc4C(N)=O)c(F)c3)nc1-2 [Example 001, 2-(2-fluoro-4-(2-((7-methoxy-4,5-dihydronaphtho[1,2-d]thiazol-2-yl)amino)-2-oxoethyl)phenoxy)nicotinamide]
5.71	COCCn1c(NC(=O)Cc2ccc(Oc3ncccc3C(N)=O)c(F)c2)nc2ccccc21 [Example 155, 2-(2-fluoro-4-(2-((1-(2-methoxyethyl)-1H-benzo[d]-imidazol-2-yl)-amino)-2-oxo-ethyl)phenoxy)-nicotinamide]
7.85	CC(C)(O)COc1ccc2nc(NC(=O)Cc3ccc(Oc4ncccc4C(N)=O)c(F)c3)n(CC3CC3)c2c1 [Example 178, 2-(4-(2-((1-(cyclopropylmethyl)-6-(2-hydroxy-2-methylpropoxy)-1H-benzo[d]imidazol-2-yl)amino)-2-oxoethyl)-2-fluorophenoxy)nicotinamide]
7.68	Cc1sc(NC(=O)Cc2ccc(Oc3ncccc3C(N)=O)c(F)c2)nc1-c1cccc(C#N)n1 [Example 045, 2-(4-(2-((4-(6-cyanopyridin-2-yl)-5-methylthiazol-2-yl)amino)-2-oxoethyl)-2-fluorophenoxy)nicotin-amide]
6.47	NC(=O)c1cccnc1Oc1ccc(CC(=O)Nc2nnc(-c3ccncc3)s2)cc1F [Example 097, 2-(2-fluoro-4-(2-oxo-2-((5-(pyridin-4-yl)-1,3,4-thiadiazol-2-yl)amino)ethyl)phe-noxy)nicotinamide]
7.92	NC(=O)c1cccnc1Oc1ccc(CC(=O)Nc2nc3cccc(F)c3n2CC2CC2)cc1F [Example 164, 2-(4-(2-((1-(cyclopropyl-methyl)-7-fluoro-1H-benzo[d]-imidazol-2-yl)-amino)-2-oxo-ethyl)-2-fluoro-phenoxy)nicotin-amide]
6.88	CP(C)(=O)c1ccc2sc(NC(=O)Cc3ccc(Oc4ncccc4C(N)=O)c(F)c3)nc2c1 [Example 146]
7.09	NC(=O)c1cccnc1Oc1ccc(CC(=O)Nc2nc3cccc(C(F)(F)F)n3n2)cc1F [Example 126, 2-(2-fluoro-4-(2-oxo-2-((5-(trifluoro-methyl)-[1,2,4]-triazolo[1,5-a]-pyridin-2-yl)amino)-ethyl)phenoxy)-nicotinamide]
6.73	NC(=O)c1cccnc1Oc1ccc(CC(=O)Nc2nc(-c3ccc4c(c3)OCCO4)cs2)cc1 [Example 057, 2-(4-(2-((4-(2,3-dihydrobenzo[b][1, 4]dioxin-6-yl)thiazol-2-yl)amino)-2-oxoethyl)phenoxy) nicotinamide]

pIC50	SMILES
7.51	NC(=O)c1cccnc1Oc1ccc(CC(=O)Nc2nc3ccccc3s2)cc1F [Example 015, 2-(4-(2-(benzo[d]thiazol-2-ylamino)-2-oxoethyl)-2-fluorophenoxy)nicotinamide]
6.97	Cc1sc(NC(=O)Cc2ccc(Oc3ncccc3C(N)=O)c(F)c2)nc1-c1ccc(=O)n(C)c1 [Example 020, 2-(2-fluoro-4-(2-((5-methyl-4-(1-methyl-6-oxo-1,6-dihydropyridin-3-yl)thiazol-2-yl)amino)-2-oxoethyl)phenoxy)nicotinamide]
7.02	Cc1sc(NC(=O)Cc2ccc(Oc3ncccc3C(N)=O)cc2)nc1-c1ccc(F)cc1 [Example 078, 2-(4-(2-((4-(4-fluorophenyl)-5-methylthiazol-2-yl)amino)-2-oxoethyl)phenoxy) nicotinamide]
7.82	Cc1sc(NC(=O)Cc2ccc(Oc3ncccc3C(N)=O)c(Cl)c2)nc1-c1ccccc1F [Example 080, 2-(2-chloro-4-(2-((4-(2-fluorophenyl)-5-methylthiazol-2-yl)amino)-2-oxoethyl)phenoxy) nicotinamide]
7.41	Cn1nccc1-c1ccc2nc(NC(=O)Cc3ccc(Oc4ncccc4C(N)=O)c(F)c3)nn2c1 [Example 138, 2-(2-fluoro-4-(2-((6-(1-methyl-1H-pyrazol-5-yl)-[1,2,4]triazolo[1,5-a]pyridin-2-yl)amino)-2-oxoethyl)phenoxy)nicotinamide]
6.72	NC(=O)c1cccnc1Oc1ccc(CC(=O)Nc2ccn(-c3ccc(C(F)(F)F)cn3)n2)cc1F [Example 100, 2-(2-fluoro-4-(2-oxo-2-((1-(5-(trifluoromethyl)pyridin-2-yl)-1H-pyrazol-3-yl)amino)ethyl)phe-noxy)nicotinamide]
6.38	NC(=O)c1cccnc1Oc1ccc(CC(=O)Nc2nnc(-c3ccccc3)s2)cc1 [Example 058, 2-(4-(2-oxo-2-((5-phenyl-1,3,4-thiadiazol-2-yl)amino)ethyl)phe-noxy)nicotinamide]
7.24	CC(C)(O)COc1ccc2c(c1)CCc1sc(NC(=O)Cc3ccc(Oc4ncccc4C(N)=O)c(Cl)c3)nc1-2 [Example 113, 2-(2-chloro-4-(2-((7-(2-hydroxy-2-methylpropoxy)-4,5-dihydronaphtho[1,2-d]thiazol-2-yl)amino)-2-oxoethyl)phenoxy)nicotinamide]
7.64	Cc1cc2nc(NC(=O)Cc3ccc(Oc4ncccc4C(N)=O)c(F)c3)nn2cc1C [Example 130, 2-(4-(2-((6,7-dimethyl-[1,2,4]-triazolo[1,5-a]-pyridin-2-yl)-amino)-2-oxoethyl)-2-fluorophenoxy)-nicotinamide]
6.02	CN1CCc2sc(NC(=O)Cc3ccc(Oc4ncccc4C(N)=O)c(F)c3)nc2C1 [Example 084, 2-(2-fluoro-4-(2-((5-methyl-4,5,6,7-tetrahydrothiazolo [4,5-c]pyridin-2-yl)amino)-2-oxoethyl)phenoxy) nicotinamide]
8.10	NC(=O)c1cccnc1Oc1ccc(CC(=O)Nc2nc3cc(-c4cc[nH]c(=O)c4)ccc3s2)cc1F [Example 024, 2-(2-fluoro-4-(2-oxo-2-((5-(2-oxo-1,2-dihydropyridin-4-yl)benzo[d]thiazol-2-yl)amino)ethyl)phe-noxy)nicotinamide]
7.08	Cc1sc(NC(=O)Cc2ccc(Oc3ncccc3C(N)=O)c(F)c2)nc1-c1ccc(S(C)(=O)=O)cc1 [Example 047, 2-(2-fluoro-4-(2-((5-methyl-4-(4-(methylsulfonyl)phenyl)thiazol-2-yl)amino)-2-oxoethyl)phenoxy)nico-tinamide]
5.86	CP(C)(=O)c1cccc2nc(NC(=O)Cc3ccc(Oc4ncccc4C(N)=O)c(F)c3)nn12 [Example 147]
7.64	Cn1ccc(-c2ccc3sc(NC(=O)Cc4ccc(Oc5ncccc5C(N)=O)c(F)c4)nc3c2)cc1=O [Example 025, 2-(2-fluoro-4-(2-((5-(1-methyl-2-oxo-1,2-dihydropyridin-4-yl)benzo[d]thiazol-2-yl)amino)-2-oxoethyl)phenoxy)nico-tinamide]
6.82	NC(=O)c1cccnc1Oc1ccc(CC(=O)Nc2nnc(-c3cnccn3)s2)cc1F [Example 011, 2-(2-fluoro-4-(2-oxo-2-((5-(pyrazin-2-yl)-1,3,4-thiadiazol-2yl)amino)ethyl)phe-noxy) nicotinamide]
7.82	Cc1sc(NC(=O)Cc2ccc(Oc3ncccc3C(N)=O)c(Cl)c2)nc1-c1ccc(Cl)nc1 [Example 105, 2-(2-chloro-4-(2-((4-(6-chloropyridin-3-yl)-5-methylthiazol-2-yl)amino)-2-oxoethyl)phenoxy) nicotinamide]
8.10	Cn1nccc1-c1ccc2sc(NC(=O)Cc3ccc(Oc4ncccc4C(N)=O)c(F)c3)nc2c1 [Example 030, 2-(2-fluoro-4-(2-((5-(1-methyl-1H-pyrazol-5-yl)benzo[d]thiazol-2-yl)amino)-2-oxoethyl)phenoxy)nico-tinamide]

From US11306081B2, “Phenylacetamides as inhibitors of rock” (BRISTOL-MYERS SQUIBB COMPANY, priority 2017, dated 2022)
